Assay results reported in patent US5306482A, “Radiopharmaceutical bacteriostats” (priority 1992, dated 1994).

Assays:
[1] = Radiolabelling test of benzalkonium chloride (BAC) with sodium pertechnetate 99mTc in the presence of PABA (ITLC-SG radiochromatography, physical appearance); assay type: physicochemical; conditions: for effect on PABA / its anti-oxidant properties / physical appearance (precipitate): MDP/PABA kit
Protocol: A preliminary radiolabelling test of benzalkonium chloride (BAC) with sodium pertechnetate ^99m Tc in the presence of para-aminobenzoic acid (PABA) was conducted.
(§1) Three vials with a total volume of 10 ml from a recently manufactured methylene diphosphonic acid (MDP) kit containing PABA were treated with various amounts of benzalkonium chloride, i.e., 1, 5 and 10 mg which corresponded to 0.01, 0.05 and 0.10% solutions. Radiochromatography was performed using ITLC-SG strips developed in acetone and saline. The vials were tested at 5 and 24 hours post reconstitution. At these two periods, less than 1% free pertechnetate and reduced hydrolyzed technetium was found in the three vials.

[2] = tested on: bacterial, fungal and mold growth; assay: Microbiological test according to USP XXI (Example 15) - overall; assay type: cell-based
Protocol: (§2) A microbiological test was conducted according to USP XXI.
Radiopharmaceutical kits employing MDP (methylene diphosphonic acid), IDP(iminodiphosphonic acid) or DTPA(diethylene-triamine-pentacetic acid) and benzylalkonium chloride (BAC), and optionally polymyxin sulfate B (PSB) were prepared, reconstituted and inoculated utilizing standard procedures.

[3] = tested on: dust culture; assay: Bacteriostatic effect of BAC in MDP/PABA - sterility test; assay type: cell-based, wild strains of bacteria and fungi
Protocol: (§3) A test of the bacteriostatic effects of various concentrations of benzalkonium chloride in MDP/PABA was conducted. A total of fourteen vials, two each of the six concentrations of benzalkonium chloride in MDP/PABA and two control MDP/PABA vials were utilized. A dilute source of microorganisms was prepared by adding 3 drops of a "dust culture" (which was a mixed culture derived from dust and comprised a variety of wild strains of bacteria and fungi typical to ambient conditions) to 1 liter of sterile water for injection. After sufficient agitation, three drops of the dilute culture were added to one vial of each concentration, including one zero vial, and all fourteen vials were left to incubate overnight (approx. 18 hours) at room temperature. One tube (15 mi) of Fluid Thioglycollate medium and one tube (15 mi) of Tryptic Soy medium was inoculated with 1 milliliter from each of the fourteen incubated vials. Each tube was incubated for fourteen days.

[4] = tested on: concentrated dust culture; assay: Bacteriostatic effect of BAC in MDP/PABA - viability check; assay type: cell-based, wild strains of bacteria and fungi
Protocol: as §3

[5] = MDP/PABA formulated with benzalkonium chloride - stress test (radiochromatography); assay type: physicochemical; conditions: 10 mg BAC added with 500 mCi pertechnetate 99mTc
Protocol: Four vials of MDP/PABA were reconstituted with 500 mCi of pertechnetate ^99m Tc in 9 mL of normal saline. Immediately to two vials were added 1 mg/1 mL (0.01%) of benzalkonium chloride solution. Similarly, to the remaining two vials we added 10 mg/1 mL (0.1%).

[6] = tested on: bacterial, fungal and mold growth; assay: Microbiological test according to USP XXI - overall; assay type: cell-based; conditions: 10 or 25 μg BAC in a volume of 10 ml
Protocol: as §2

[7] = MDP/PABA compared with MDP/PABA/BAC - biodistribution; assay type: in vivo; conditions: rat
Protocol: A lyophilized batch of MDP/PABA formulated with benzalkonium chloride (MDP/PABA/BAC) was prepared and tested. The bacterial preservative was added prior to freeze-drying. No special precaution was taken in order to avoid excessive air oxidation of the tin.
A side by side study of biodistribution of the two formulations with and without benzalkonium chloride was conducted.
Each lyophilized vial contained 10 mg of MDP, 1 mg of stannous chloride dehydrate, 2 mg of PABA and 50 μg of benzalkonium chloride (BAC). The pH was adjusted to 7.0. […] The haze was filtered off to give a clear solution.
The dosage was 83 μg MDP per rat (130-150 g). Tissue distribution was monitored at 20 minutes, 1 hour, 2 hours, 6 hours and 24 hours post-reconstitution (PR).

[8] = Accelerated stability study of MDP/PABA/BAC; assay type: physicochemical
Protocol: The formulations were examined in an accelerated stability study which was conducted according to FDA guidelines.

[9] = IDP/PABA/BAC and IDP/PABA/BAC/PSB stress test (radiochromatography); assay type: physicochemical; conditions: 500 mCi pertechnetate 99mTc
Protocol: as §1
(§4) Two vials of IDP/PABA/BAC were reconstituted with 500 mCi of pertechnetate ^99m Tc in 10 mL of normal saline and 7 ml of the solution was removed 20 minutes later, The solutions were kept at room temperature for the length of the test. The radiochromatography tests as described in Example 1 were performed at less than 30 minutes and at 7 and 24 hours post reconstitution (PR):
as §4, with “of IDP/PABA/BAC/PSB” for “of IDP/PABA/BAC”, “minutes later.” for “minutes later,”, “30 min” for “30 minutes”, “(PR): […]” for “(PR):”

[10] = MDP/PABA/BAC formulation - radiochemical stress test; assay type: physicochemical
Protocol: Four batches of MDP/PABA/BAC kits were prepared, lyophilized, and tested. The formulations were as follows: […]
One vial from each batch was reconstituted with 500 mCi ^99m Tc-sodium pertechnetate in 10 mL. Twenty minutes later, 7 mL were removed. The vials were left at room temperature for the duration of the test.

[11] = MDP/PABA/BAC radiochemical stress test (Example 3); assay type: physicochemical; conditions: before filtration; pH 7.0; 50 μg BAC
Protocol: A radiochemical "stress test" was also performed on three vials of MDP/PABA/BAC. A "non-stressed" vial was tested simultaneously as a control.
Four vials of the lyophilized product were labelled with ^99m Tc-sodium pertechnetate. Each received 500 mCi in 10 mL of technetium from a recent elution. For the first three vials, twenty minutes after reconstitution, 7 mL were removed. The fourth vial remained untouched. The vials were kept at room temperature throughout the length of the experiment.
The radiochemical tests were performed at 0.5, 6.0 and 24 hours post reconstitution.

[12] = MDP/PABA kit vials with 1, 5 and 10 mg BAC (0.01, 0.05, 0.10%), 5 and 24 hours post reconstitution

In the case of `CC(C)(C)CC(C)(C)c1ccc(OCCOCC[N+](C)(C)Cc2ccccc2)cc1` [benzethonium chloride], the “effect on PABA / its anti-oxidant properties” value [1] is reported as “did not interfere with the anti-oxidant properties of PABA” and the “physical appearance (precipitate)” value [1] is reported as “caused the phosphonate to precipitate giving a cloudy solution”.
With polymyxin B the “protection against Gram Negative bacteria” value ([2]; addition to BAC) was “additional protection against Gram Negative bacteria”.
With “N-alkylbenzyldimethylammonium chloride and/or N-dialkylbenzylmethylammonium chloride [benzalkonium chloride]” the “Sterility test (growth)” value ([3]; 10 μg BAC per vial, control (not inoculated), SOY) was “NEG”, the “Sterility test (growth)” value ([3]; 10 μg BAC per vial, control (not inoculated), THIO.) was “NEG” and the “Sterility test (growth)” value ([3]; 10 μg BAC per vial, inoculated, SOY) was “POS”. The “Sterility test (growth)” value ([3]; 10 μg BAC per vial, inoculated, THIO.) was “POS”, the “growth in both media” value ([3]; 10 μg and 25 μg BAC per vial) was “Growth was observed in both media” and the “Sterility test (growth)” value ([3]; 25 μg BAC per vial, control (not inoculated), SOY) was “NEG”. The “Sterility test (growth)” value ([3]; 25 μg BAC per vial, control (not inoculated), THIO.) was “NEG”, the “Sterility test (growth)” value ([3]; 25 μg BAC per vial, inoculated, SOY) was “POS” and the “Sterility test (growth)” value ([3]; 25 μg BAC per vial, inoculated, THIO.) was “POS”. The “Sterility test (growth)” value ([3]; 50 μg BAC per vial, control (not inoculated), SOY) was “NEG”, the “Sterility test (growth)” value ([3]; 50 μg BAC per vial, control (not inoculated), THIO.) was “NEG” and the “Sterility test (growth)” value ([3]; 50 μg BAC per vial, inoculated, SOY) was “NEG”. The “Sterility test (growth)” value ([3]; 50 μg BAC per vial, inoculated, THIO.) was “NEG”, the “Sterility test (growth)” value ([3]; 100 μg BAC per vial, control (not inoculated), SOY) was “NEG” and the “Sterility test (growth)” value ([3]; 100 μg BAC per vial, control (not inoculated), THIO.) was “NEG”. The “Sterility test (growth)” value ([3]; 100 μg BAC per vial, inoculated, SOY) was “NEG”, the “Sterility test (growth)” value ([3]; 100 μg BAC per vial, inoculated, THIO.) was “NEG” and the “Sterility test (growth)” value ([3]; 250 μg BAC per vial, control (not inoculated), SOY) was “NEG”. For the same compound, the “Sterility test (growth)” value ([3]; 250 μg BAC per vial, control (not inoculated), THIO.) was “NEG”, the “Sterility test (growth)” value ([3]; 250 μg BAC per vial, inoculated, SOY) was “NEG” and the “Sterility test (growth)” value ([3]; 250 μg BAC per vial, inoculated, THIO.) was “NEG”. For the same compound, the “Sterility test (growth)” value ([3]; 1000 μg BAC per vial, control (not inoculated), SOY) was “NEG”, the “Sterility test (growth)” value ([3]; 1000 μg BAC per vial, control (not inoculated), THIO.) was “NEG” and the “Sterility test (growth)” value ([3]; 1000 μg BAC per vial, inoculated, SOY) was “NEG”. The “Sterility test (growth)” value ([3]; 1000 μg BAC per vial, inoculated, THIO.) was “NEG”, the growth ([3]; greater than 25 μg BAC per vial) was “no growth” and the “effect on PABA / its anti-oxidant properties” value [1] was “did not have a deteriorating effect on PABA”. For the same compound, the “physical appearance (precipitate)” value [1] was “no precipitate was observed”, the free pertechnetate [1, 12] was “less than 1%” and the reduced hydrolyzed technetium [1, 12] was “less than 1%”. For the same compound, the “effect on PABA / its anti-oxidant properties” value ([1]; listed as BAC) was “does not interfere with the anti-oxidant properties of PABA”, the “Viability check: date growth observed” value ([4]; 50 μg BAC, control, SOY) was 2/2 and the “Viability check: date growth observed” value ([4]; 50 μg BAC, control, THIO.) was 2/1. The “Viability check: date growth observed” value ([4]; 50 μg BAC, innoc., SOY) was 2/2, the “Viability check: date growth observed” value ([4]; 50 μg BAC, innoc., THIO.) was 2/1 and the “Viability check: date growth observed” value ([4]; 100 μg BAC, control, SOY) was 2/2. The “Viability check: date growth observed” value ([4]; 100 μg BAC, control, THIO.) was 2/1, the “Viability check: date growth observed” value ([4]; 100 μg BAC, innoc., SOY) was 2/6 and the “Viability check: date growth observed” value ([4]; 100 μg BAC, innoc., THIO.) was 2/1. For the same compound, the “effect in viability test” value ([4]; 250 μg BAC per vial and over) was “beneficial effect of the benzalkonium chloride was evident”, the “Viability check: date growth observed” value ([4]; 250 μg BAC, control, SOY) was “NEG” and the “Viability check: date growth observed” value ([4]; 250 μg BAC, control, THIO.) was “NEG”. For the same compound, the “Viability check: date growth observed” value ([4]; 250 μg BAC, innoc., SOY) was “NEG”, the “Viability check: date growth observed” value ([4]; 250 μg BAC, innoc., THIO.) was “NEG” and the “Viability check: date growth observed” value ([4]; 1000 μg BAC, control, SOY) was “NEG”. For the same compound, the “Viability check: date growth observed” value ([4]; 1000 μg BAC, control, THIO.) was “NEG”, the “Viability check: date growth observed” value ([4]; 1000 μg BAC, innoc., SOY) was “NEG” and the “Viability check: date growth observed” value ([4]; 1000 μg BAC, innoc., THIO.) was “NEG”. For the same compound, the bacteriostasis ([2]; 25 μg BAC and optionally 25 μg polymyxin B in 10 ml) was “effective bacteriostasis”, the “effect on stability of the product” value [5] was “did not affect the stability of the product” and the bacteriostasis [6] was “effective bacteriostasis”. The “biodistribution of the radiopharmaceutical upon addition of BAC” value [7] was “not altered”, the “effect on shelf life of unreconstituted products” value [8] was “does not diminish the shelf life of unreconstituted products” and the “effect on stability of the product” value [9] was “did not affect the stability of the product”. The “effect on reducing capacity of stannous chloride” value [10] was “neither improved nor diminished the reducing capacity of stannous chloride” and the “haze on addition to the final solution” value [11] was “a slight haze appeared”.
